Reference: ChEMBL document CHEMBL3826926, “Kinetic and structural insights into the binding of histone deacetylase 1 and 2 (HDAC1, 2) inhibitors” (Bioorg Med Chem, 2016)

Experiments:
Histone deacetylase 3 [1] = biological target: T1, Histone deacetylase 3 (Homo sapiens, UniProt O15379)
Description: Inhibition full length human recombinant HDAC3 expressed in baculovirus using carboxyfluorescein (FAM)-labeled acetylated/ trifluoroacetylated peptide as substrate after 60 mins by fluorescence assay

[2] = Stability in mouse plasma assessed as compound remaining at 5 uM after 5 hrs by UPLC-MS analysis; assay type: ADME, cell-free; settings: read-out: Stability
Histone deacetylase 2 [3] = biological target: T2, Histone deacetylase 2 (Homo sapiens, UniProt Q92769); assay: biochemical; design: species or system Sf9
Description: Inhibition full length human recombinant HDAC2 expressed in baculovirus coexpressed in fall armyworm Sf9 cells using carboxyfluorescein (FAM)-labeled acetylated/ trifluoroacetylated peptide as substrate after 60 mins by fluorescence assay

Histone deacetylase 1 [4] = biological target: T3, Histone deacetylase 1 (Homo sapiens, UniProt Q13547); assay: biochemical
Description: Inhibition of C-terminal His-tagged and C-terminal FLAG-tagged full length human recombinant HDAC1 expressed in baculovirus coexpressed in fall armyworm Sf9 cells using carboxyfluorescein (FAM)-labeled acetylated/ trifluoroacetylated peptide as substrate after 60 mins by fluorescence assay

Histone deacetylase 1 [5] = biological target: T3, Histone deacetylase 1; settings: Sf9
Description: Inhibition of C-terminal His-tagged and C-terminal FLAG-tagged full length human recombinant HDAC1 expressed in baculovirus coexpressed in fall armyworm Sf9 cells using carboxyfluorescein (FAM)-labeled acetylated/ trifluoroacetylated peptide as substrate assessed as residence time by fluorescence assay

Histone deacetylase 3 [6] = biological target: T1, Histone deacetylase 3; remark: listed apart in the source
Description: Inhibition of full length human recombinant HDAC3 expressed in baculovirus using carboxyfluorescein (FAM)-labeled acetylated/ trifluoroacetylated peptide as substrate assessed as residence time by fluorescence assay

[7] = Stability in mouse liver microsomes assessed as compound remaining at 1 uM after 60 mins by UPLC-MS analysis; assay type: ADME; settings: read-out: Stability
Mus musculus [8] = assay: Binding affinity to mouse brain HDAC1 at 10 mg/kg, ip; assay type: functional
Mus musculus [9] = assay: Binding affinity to mouse brain HDAC2 at 10 mg/kg, ip; assay type: functional
Histone deacetylase 2 [10] = biological target: T2, Histone deacetylase 2; settings: Sf9
Description: Inhibition of full length human recombinant HDAC2 expressed in baculovirus coexpressed in fall armyworm Sf9 cells using carboxyfluorescein (FAM)-labeled acetylated/ trifluoroacetylated peptide as substrate assessed as residence time by fluorescence assay

[11] = AUC in Sprague-Dawley rat plasma at 1 mg/kg, po; assay type: ADME, organism-based
[12] = Oral bioavailability in Sprague-Dawley rat at 1 mg/kg; assay type: ADME, organism-based; settings: in vivo
[13] = Ratio of AUC in brain to plasma in Sprague-Dawley rat at 1 mg/kg, po; assay type: ADME, organism-based; settings: read-out: Ratio AUC
[14] = Cmax in Sprague-Dawley rat brain at 1 mg/kg, po; assay type: ADME, organism-based; design: dose 1 mg/kg, route oral
Histone deacetylase 7 = biological target: T4, Histone deacetylase 7 (Homo sapiens, UniProt Q8WUI4); assay: (§1) Inhibition of N-terminal GST-tagged human recombinant HDAC7 (518 to end residues) expressed in baculovirus coexpressed in fall armyworm Sf9 cells using carboxyfluorescein (FAM)-labeled acetylated/ trifluoroacetylated peptide as substrate after 60 mins by fluorescence assay
T4 sequence (Q8WUI4 whole entry): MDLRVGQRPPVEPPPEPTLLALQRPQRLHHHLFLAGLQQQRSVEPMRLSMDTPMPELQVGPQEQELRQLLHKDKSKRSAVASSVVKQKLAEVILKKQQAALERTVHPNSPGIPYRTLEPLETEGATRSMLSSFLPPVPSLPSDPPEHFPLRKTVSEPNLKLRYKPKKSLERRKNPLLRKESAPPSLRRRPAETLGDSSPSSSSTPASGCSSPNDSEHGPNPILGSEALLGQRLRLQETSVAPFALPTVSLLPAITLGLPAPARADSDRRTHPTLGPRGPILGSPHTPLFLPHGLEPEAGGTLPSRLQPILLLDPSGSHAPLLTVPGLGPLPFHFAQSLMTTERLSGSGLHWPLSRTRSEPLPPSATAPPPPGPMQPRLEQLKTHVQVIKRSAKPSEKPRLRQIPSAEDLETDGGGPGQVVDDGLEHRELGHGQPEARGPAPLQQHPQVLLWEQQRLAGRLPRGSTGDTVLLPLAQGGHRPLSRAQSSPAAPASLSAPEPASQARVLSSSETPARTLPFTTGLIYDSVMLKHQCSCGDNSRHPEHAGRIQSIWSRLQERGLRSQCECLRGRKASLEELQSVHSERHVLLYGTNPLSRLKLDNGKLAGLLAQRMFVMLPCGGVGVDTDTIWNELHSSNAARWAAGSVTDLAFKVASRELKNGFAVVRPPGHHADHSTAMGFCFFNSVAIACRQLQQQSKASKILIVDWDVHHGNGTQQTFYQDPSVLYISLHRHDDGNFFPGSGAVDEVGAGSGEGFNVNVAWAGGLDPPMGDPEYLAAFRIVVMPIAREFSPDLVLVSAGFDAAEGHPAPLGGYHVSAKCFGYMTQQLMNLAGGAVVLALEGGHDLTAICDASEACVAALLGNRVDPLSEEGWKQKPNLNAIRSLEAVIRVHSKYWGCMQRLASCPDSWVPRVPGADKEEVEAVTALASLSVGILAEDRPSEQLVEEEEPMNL

[15] = Ratio of Cmax in brain to plasma in Sprague-Dawley rat at 1 mg/kg, po; assay type: ADME, organism-based
[16] = Half life in Sprague-Dawley rat brain at 1 mg/kg, po; assay type: ADME, organism-based
Histone deacetylase 4 = Histone deacetylase 4 (Homo sapiens, UniProt P56524); assay: as §1, with “GST-tagged and C-terminal His-tagged” for “GST-tagged”, “HDAC4 (627” for “HDAC7 (518”, “1084 residues )” for “end residues)”
[17] = AUC in Sprague-Dawley rat brain at 1 mg/kg, po; assay type: ADME, organism-based
Histone deacetylase 8 = biological target: T5, Histone deacetylase 8 (Homo sapiens, UniProt Q9BY41); assay: Inhibition of C-terminal His-tagged full length human recombinant HDAC8 expressed in baculovirus coexpressed in fall armyworm Sf9 cells using carboxyfluorescein (FAM)-labeled acetylated/ trifluoroacetylated peptide as substrate after 60 mins by fluorescence assay
T5 sequence (Q9BY41 whole entry): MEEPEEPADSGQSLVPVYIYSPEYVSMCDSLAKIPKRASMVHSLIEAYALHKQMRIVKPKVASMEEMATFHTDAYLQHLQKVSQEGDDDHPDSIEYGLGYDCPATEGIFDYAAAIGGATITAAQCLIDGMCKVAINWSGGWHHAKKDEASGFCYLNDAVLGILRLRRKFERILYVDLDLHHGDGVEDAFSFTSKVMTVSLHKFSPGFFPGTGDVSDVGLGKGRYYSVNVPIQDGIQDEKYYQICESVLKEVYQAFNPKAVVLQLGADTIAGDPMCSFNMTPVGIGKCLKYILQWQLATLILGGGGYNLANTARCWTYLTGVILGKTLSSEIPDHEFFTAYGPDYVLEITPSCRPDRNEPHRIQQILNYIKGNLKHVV

[18] = biological target: T6, Protein deacetylase HDAC6 (Homo sapiens, UniProt Q9UBN7); assay: Inhibition of human recombinant HDAC6 expressed in baculovirus coexpressed in fall armyworm Sf9 cells using carboxyfluorescein (FAM)-labeled acetylated/ trifluoroacetylated peptide as substrate after 60 mins by fluorescence assay
T6 sequence (Q9UBN7 whole entry): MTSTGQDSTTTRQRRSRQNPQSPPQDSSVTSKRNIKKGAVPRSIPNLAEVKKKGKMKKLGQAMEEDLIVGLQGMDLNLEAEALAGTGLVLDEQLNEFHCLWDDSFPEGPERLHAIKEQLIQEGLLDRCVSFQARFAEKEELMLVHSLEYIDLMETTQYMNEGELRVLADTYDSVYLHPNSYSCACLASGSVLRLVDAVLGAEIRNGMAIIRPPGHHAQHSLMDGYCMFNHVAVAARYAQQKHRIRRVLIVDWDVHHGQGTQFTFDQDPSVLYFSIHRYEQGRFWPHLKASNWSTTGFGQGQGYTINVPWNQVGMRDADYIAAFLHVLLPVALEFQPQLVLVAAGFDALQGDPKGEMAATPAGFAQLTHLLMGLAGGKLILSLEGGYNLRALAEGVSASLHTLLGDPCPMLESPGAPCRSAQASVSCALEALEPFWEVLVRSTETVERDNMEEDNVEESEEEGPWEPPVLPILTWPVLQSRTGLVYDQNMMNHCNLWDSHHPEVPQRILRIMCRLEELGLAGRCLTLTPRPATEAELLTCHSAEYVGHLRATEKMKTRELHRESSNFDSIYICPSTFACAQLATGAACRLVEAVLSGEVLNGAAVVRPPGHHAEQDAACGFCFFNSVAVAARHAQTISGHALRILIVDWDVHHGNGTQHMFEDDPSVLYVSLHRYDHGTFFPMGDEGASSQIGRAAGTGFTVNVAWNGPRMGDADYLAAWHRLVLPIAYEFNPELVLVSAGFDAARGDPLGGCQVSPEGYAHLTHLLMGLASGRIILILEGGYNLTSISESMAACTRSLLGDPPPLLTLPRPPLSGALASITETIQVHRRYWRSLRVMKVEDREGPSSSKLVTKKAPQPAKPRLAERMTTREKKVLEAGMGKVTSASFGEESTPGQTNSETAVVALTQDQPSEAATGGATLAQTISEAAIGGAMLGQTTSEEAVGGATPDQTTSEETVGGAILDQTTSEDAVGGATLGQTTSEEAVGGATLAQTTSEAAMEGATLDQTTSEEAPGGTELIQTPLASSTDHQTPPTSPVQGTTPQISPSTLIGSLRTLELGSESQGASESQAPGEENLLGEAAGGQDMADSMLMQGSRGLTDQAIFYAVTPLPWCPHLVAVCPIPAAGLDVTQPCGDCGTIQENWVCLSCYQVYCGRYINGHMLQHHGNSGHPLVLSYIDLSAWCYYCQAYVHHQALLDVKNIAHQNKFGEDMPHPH

[19] = Half life in Sprague-Dawley rat plasma at 1 mg/kg, po; assay type: ADME, organism-based
Histone deacetylase 5 = Histone deacetylase 5 (Homo sapiens, UniProt Q9UQL6); assay: Inhibition of N-terminal GST-tagged full length human recombinant HDAC5 expressed in baculovirus coexpressed in fall armyworm Sf9 cells using carboxyfluorescein (FAM)-labeled acetylated/ trifluoroacetylated peptide as substrate after 60 mins by fluorescence assay
Histone deacetylase 9 = Histone deacetylase 9 (Homo sapiens, UniProt Q9UKV0); assay: Inhibition of C-terminal His-tagged human recombinant HDAC9 (604 to 1066 residues) expressed in baculovirus coexpressed in fall armyworm Sf9 cells using carboxyfluorescein (FAM)-labeled acetylated/ trifluoroacetylated peptide as substrate after 60 mins by fluorescence assay
[20] = Cmax in Sprague-Dawley rat plasma at 1 mg/kg, po; assay type: ADME, organism-based; design: dose 1 mg/kg, route oral

T3 sequence (Q13547 whole entry): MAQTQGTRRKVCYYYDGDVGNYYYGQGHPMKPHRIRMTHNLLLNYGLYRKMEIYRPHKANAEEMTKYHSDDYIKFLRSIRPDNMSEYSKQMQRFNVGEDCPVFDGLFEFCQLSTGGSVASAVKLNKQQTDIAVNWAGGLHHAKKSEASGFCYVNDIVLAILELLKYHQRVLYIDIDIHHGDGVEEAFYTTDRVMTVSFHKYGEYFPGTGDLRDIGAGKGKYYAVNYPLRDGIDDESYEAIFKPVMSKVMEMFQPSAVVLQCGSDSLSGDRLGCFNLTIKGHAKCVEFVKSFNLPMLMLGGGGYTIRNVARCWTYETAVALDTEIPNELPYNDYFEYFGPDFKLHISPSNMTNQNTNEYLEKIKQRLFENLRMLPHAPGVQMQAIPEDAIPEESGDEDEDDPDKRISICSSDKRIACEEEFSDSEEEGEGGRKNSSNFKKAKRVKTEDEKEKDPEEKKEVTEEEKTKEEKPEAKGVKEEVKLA
T2 sequence (Q92769 whole entry): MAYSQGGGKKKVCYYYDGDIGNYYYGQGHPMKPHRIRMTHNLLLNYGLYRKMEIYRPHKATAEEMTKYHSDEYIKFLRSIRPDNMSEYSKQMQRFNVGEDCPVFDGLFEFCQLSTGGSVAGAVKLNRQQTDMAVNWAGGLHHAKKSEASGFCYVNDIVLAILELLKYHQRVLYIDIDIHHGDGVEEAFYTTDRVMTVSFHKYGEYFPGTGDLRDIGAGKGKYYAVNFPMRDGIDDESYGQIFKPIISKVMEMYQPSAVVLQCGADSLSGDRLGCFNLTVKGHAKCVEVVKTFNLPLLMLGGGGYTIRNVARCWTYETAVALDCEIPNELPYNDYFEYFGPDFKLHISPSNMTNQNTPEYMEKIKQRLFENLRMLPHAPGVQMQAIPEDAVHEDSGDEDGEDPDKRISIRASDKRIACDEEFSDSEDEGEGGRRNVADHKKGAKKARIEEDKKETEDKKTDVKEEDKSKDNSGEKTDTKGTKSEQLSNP
T1 sequence (O15379 whole entry): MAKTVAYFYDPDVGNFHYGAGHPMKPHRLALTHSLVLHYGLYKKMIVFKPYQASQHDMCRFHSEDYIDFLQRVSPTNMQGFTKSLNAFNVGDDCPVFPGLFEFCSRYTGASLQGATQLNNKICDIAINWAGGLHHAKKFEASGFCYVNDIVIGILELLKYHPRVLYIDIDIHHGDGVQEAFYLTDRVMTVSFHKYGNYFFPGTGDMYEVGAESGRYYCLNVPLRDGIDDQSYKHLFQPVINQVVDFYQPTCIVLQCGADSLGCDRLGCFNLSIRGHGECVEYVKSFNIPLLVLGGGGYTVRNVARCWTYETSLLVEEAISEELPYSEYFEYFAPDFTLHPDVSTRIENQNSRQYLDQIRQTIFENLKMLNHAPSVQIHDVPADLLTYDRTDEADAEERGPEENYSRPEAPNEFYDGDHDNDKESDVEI
Histone deacetylase 5, sequence (Q9UQL6 whole entry, the tested form may be a part): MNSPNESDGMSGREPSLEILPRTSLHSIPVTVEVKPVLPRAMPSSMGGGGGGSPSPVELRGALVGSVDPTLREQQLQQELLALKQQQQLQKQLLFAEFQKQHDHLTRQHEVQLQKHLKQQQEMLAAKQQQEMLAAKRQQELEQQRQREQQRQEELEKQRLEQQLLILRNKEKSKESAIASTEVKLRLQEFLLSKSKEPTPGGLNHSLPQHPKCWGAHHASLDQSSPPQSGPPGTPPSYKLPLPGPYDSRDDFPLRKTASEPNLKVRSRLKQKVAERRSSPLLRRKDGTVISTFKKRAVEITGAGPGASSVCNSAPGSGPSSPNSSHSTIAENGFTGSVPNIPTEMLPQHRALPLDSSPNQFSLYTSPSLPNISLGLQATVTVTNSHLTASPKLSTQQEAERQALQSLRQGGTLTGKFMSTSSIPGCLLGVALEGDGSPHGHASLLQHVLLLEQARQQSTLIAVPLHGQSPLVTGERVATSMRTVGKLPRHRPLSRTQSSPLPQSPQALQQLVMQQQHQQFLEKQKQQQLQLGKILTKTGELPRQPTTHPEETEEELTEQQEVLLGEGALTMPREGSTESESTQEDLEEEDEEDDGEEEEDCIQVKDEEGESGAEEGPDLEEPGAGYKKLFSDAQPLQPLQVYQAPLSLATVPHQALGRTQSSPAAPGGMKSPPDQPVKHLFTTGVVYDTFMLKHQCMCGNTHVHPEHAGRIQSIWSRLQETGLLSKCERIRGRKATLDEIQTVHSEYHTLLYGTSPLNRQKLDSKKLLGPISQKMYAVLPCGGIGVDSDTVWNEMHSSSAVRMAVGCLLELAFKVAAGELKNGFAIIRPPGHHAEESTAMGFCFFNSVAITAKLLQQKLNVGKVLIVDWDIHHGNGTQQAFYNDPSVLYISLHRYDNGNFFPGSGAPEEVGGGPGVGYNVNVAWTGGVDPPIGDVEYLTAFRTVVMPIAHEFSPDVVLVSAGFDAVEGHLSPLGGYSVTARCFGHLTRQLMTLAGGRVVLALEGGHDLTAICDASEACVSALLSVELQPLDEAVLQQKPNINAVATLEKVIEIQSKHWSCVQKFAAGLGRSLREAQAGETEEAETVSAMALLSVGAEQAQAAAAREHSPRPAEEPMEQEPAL
Histone deacetylase 4, sequence (P56524 whole entry): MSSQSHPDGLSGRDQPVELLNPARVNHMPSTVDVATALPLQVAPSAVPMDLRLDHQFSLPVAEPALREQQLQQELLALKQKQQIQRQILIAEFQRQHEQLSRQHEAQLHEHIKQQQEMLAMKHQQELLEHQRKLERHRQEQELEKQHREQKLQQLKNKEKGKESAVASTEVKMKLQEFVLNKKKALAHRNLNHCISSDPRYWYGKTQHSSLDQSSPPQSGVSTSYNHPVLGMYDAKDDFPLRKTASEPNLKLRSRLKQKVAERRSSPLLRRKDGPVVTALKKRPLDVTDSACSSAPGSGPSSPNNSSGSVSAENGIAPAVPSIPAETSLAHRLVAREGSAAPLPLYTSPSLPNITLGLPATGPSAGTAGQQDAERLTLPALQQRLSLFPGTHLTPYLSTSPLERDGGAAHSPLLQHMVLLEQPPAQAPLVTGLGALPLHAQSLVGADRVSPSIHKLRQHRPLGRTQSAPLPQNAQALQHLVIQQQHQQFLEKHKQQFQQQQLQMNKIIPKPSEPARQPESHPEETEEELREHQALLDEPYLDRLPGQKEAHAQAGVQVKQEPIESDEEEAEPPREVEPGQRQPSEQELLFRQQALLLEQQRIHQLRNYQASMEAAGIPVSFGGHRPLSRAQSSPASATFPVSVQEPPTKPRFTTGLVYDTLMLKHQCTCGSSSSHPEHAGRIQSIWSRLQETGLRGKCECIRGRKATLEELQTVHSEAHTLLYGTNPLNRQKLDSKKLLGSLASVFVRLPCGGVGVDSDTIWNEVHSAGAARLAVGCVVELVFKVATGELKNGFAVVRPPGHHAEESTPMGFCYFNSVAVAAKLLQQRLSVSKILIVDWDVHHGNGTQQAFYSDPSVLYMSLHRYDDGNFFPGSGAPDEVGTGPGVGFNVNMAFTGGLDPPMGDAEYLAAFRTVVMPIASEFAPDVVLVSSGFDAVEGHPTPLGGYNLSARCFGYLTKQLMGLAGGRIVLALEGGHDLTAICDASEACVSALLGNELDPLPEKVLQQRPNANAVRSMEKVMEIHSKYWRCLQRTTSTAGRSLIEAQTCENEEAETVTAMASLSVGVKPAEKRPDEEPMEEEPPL
Histone deacetylase 9, sequence (Q9UKV0 whole entry, the tested form may be a part): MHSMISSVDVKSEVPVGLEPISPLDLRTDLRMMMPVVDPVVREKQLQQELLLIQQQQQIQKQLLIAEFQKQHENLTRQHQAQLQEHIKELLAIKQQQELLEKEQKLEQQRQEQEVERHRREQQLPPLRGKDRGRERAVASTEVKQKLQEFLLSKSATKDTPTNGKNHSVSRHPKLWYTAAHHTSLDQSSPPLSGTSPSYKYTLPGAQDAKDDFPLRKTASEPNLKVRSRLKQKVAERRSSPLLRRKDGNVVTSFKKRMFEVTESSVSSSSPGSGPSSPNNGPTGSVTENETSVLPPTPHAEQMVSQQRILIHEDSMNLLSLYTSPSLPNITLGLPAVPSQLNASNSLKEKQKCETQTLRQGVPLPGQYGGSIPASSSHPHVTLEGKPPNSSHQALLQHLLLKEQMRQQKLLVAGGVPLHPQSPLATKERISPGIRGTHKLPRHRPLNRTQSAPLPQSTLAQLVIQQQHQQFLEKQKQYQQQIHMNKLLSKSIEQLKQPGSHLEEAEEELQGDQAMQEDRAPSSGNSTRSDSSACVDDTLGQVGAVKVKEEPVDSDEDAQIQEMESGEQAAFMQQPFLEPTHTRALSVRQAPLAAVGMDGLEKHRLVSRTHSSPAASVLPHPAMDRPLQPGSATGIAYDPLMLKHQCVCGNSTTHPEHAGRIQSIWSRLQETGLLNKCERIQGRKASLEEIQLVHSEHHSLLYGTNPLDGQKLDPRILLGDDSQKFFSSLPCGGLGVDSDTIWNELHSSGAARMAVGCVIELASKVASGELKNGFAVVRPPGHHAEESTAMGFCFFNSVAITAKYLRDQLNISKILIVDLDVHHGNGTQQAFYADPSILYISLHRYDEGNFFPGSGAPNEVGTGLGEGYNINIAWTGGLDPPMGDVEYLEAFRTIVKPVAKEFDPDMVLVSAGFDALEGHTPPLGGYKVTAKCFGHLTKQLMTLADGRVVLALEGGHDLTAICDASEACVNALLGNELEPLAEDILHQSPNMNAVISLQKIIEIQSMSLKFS

IC50 (Histone deacetylase 3 [1]) [µM] | remaining at 5 h, 5 µM [2] [%] | IC50 (Histone deacetylase 2 [3]) [µM] | IC50 (Histone deacetylase 1 [4]) [µM] | T1/2 (Histone deacetylase 1 [5]) [min] | T1/2 (Histone deacetylase 3 [6]) [min] | SMILES | also measured
5.95 | 0 | 1.45 | 1.43 | – | – | Nc1ccc(-c2ccc(F)cc2)cc1NC(=O)[C@@H]1CCCCO1 | –
– | – | – | – | 6.45 | 20.8 | Nc1ccc(-c2cccnc2)cc1NC(=O)C1CCOCC1 | –
25.9 | 11.1 | 0.119 | 0.045 | – | – | Nc1ccc(-c2ccc(F)cc2)cc1NC(=O)C1Cc2ccccc2CO1 (centres undefined) | –
– | 100 | – | – | – | – | Nc1ccc(-c2ccc(F)cc2)cc1NC(=O)C1COc2ccccc2C1 (centres undefined) | remaining at 1 h, 1 µM [7]: 25%
19.8 | – | 4.73 | 1.22 | – | – | Nc1ccc(-c2ccc(F)cc2)cc1NC(=O)C1CCCOC1 (centres undefined) | –
– | – | – | – | 2.35 | > 33.3 | Nc1ccc(-c2ccncc2)cc1NC(=O)C1CCOCC1 | –
– | 93 | – | – | – | – | Nc1ccc(-c2ccc(F)cc2)cc1NC(=O)C1CCOCC1 | Activity (Mus musculus [8]): 68%; remaining at 1 h, 1 µM [7]: 54%; Activity (Mus musculus [9]): 10%
– | – | – | – | 9.67 | > 33.3 | Nc1ccc(-c2cccc(F)c2)cc1NC(=O)C1CCOCC1 | T1/2 (Histone deacetylase 2 [10]): 12.3 min
– | 94.1 | – | – | 13 | 217 | Nc1ccc(-c2ccc(F)cc2)cc1NC(=O)C1C2COCC21 (centres undefined) | T1/2 (Histone deacetylase 2 [10]): 58 min; remaining at 1 h, 1 µM [7]: 60%
– | – | – | – | 0.119 | 3.85 | Nc1ccc(-c2ccccc2)cc1NC(=O)C1CCOCC1 | –
5.73 | 0 | 1.29 | 0.467 | – | – | Nc1ccc(-c2ccc(F)cc2)cc1NC(=O)[C@H]1CCCCO1 | –
6.26 | 3.7 | 6.56 | 5.59 | – | – | Nc1ccc(-c2ccc(F)cc2)cc1NC(=O)C1CCc2ccccc2O1 (centres undefined) | –
– | 114 | – | – | 3 | 132 | Nc1ccc(-c2ccc(F)cc2)cc1NC(=O)[C@@H]1C[C@H]2CC[C@@H](C1)O2 | AUC [11]: 10.8 µM·h; bioavailability [12]: 33.4%; Kp [13]: 0.17; Cmax [14]: 890 nM; T1/2 (Histone deacetylase 2 [10]): 37 min; IC50 (Histone deacetylase 7): > 33.3 µM; Activity (Mus musculus [8]): 42%; Kp [15]: 0.22; half-life [16]: 146 min; IC50 (Histone deacetylase 4): > 33.3 µM; remaining at 1 h, 1 µM [7]: 62%; AUC [17]: 1.8 µM·h; Activity (Mus musculus [9]): 10%; IC50 (Histone deacetylase 8): > 33.3 µM; IC50 [18]: > 33.3 µM; half-life [19]: 282 min; IC50 (Histone deacetylase 5): > 33.3 µM; IC50 (Histone deacetylase 9): > 33.3 µM; Cmax [20]: 3970 nM
– | – | – | – | 26.7 | > 33.3 | Nc1ccc(-c2ccc(C(F)(F)F)cc2)cc1NC(=O)C1CCOCC1 | T1/2 (Histone deacetylase 2 [10]): > 33.3 min
